# In patent US8518903B2, “Use of toll-like receptor-9 agonists” (University of Pittsburgh—of the Commonwealth System of …, priority 2007, dated 2013):
# Legend:
# [1] = tested on: enterocytes; assay: Phosphorylated p38 and ERK in enterocytes exposed to LPS and CpG (Western blot); format: cell-based
# Procedure: FIG. 6A-C. LPS signaling is attenuated by the TLR9 ligand CpG-DNA in enterocytes. (A) Comparison of phosphorylated p38 versus total p38 in a negative control, in the presence of 50 μg/ml LPS, in the presence of 50 μg/ml LPS and 10 μM CpG, and in the presence of 10 μM CpG. (B) Comparison of phosphorylated ERK versus total ERK in a negative control, in the presence of LPS, in the presence of LPS and CpG, and in the presence of CpG. (C) Bar graph showing the results of A.
# A first series of experiments was designed to study the consequences of the TLR4 activator LPS and a CpG TLR9 agonist on the mediators of activated TLR4, p38 and ERK. Throughout this example section, the CpG used was CpG ODN, 5′-[…]-3′ (SEQ ID NO:6) P38 and ERK are both phosphorylated in their activated form. As shown in FIG. 6A-C, the relative levels of phosphorylated p38 and ERK increased when enterocytes were exposed to LPS.
# [2] = tested on: experimental NEC in newborn mice; assay: Murine model of necrotizing enterocolitis (formula gavage + hypoxia), CpG treatment; format: in vivo, mouse
# Procedure: FIG. 18A-D. Histology of intestines from mice that were (A) breast fed (control); (B) gavage fed+hypoxic to model necrotizing enterocolitis (NEC); (C) breast fed and treated with 500 μg/kg (approximately 10 μg/animal, intraperitoneally injected) CpG (control); (D) gavage fed+hypoxic to model NEC and treated with 500 μg/kg (approximately 10 μg/animal, intraperitoneally injected) CpG.
# (A) Control mice (injected with saline). (B) Mice injected with 5 mg/kg of LPS. (C) Mice injected with 5 mg/kg of LPS and 1 mg/kg of CpG. (D-G) Immunohistochemical staining of terminal ileum from newborn mice that were either breast fed (“control”) or induced to develop NEC (“NEC”). Sections were stained for caspase 3 as a marker of apoptosis and enterocyte loss; positive staining is indicated by a small arrowhead. (D) Control injected with saline. (E) NEC injected with saline. (F) Control injected with 1 mg/kg CpG-DNA daily for four days. (G) NEC injected with 1 mg/kg CpG-DNA daily for four days. (H) Bar graph summarizing results, showing percent apoptosis in terminal ileum as depicted in (D)-(G).
# FIG. 20A-I. Newborn mice were either breast fed (“control”) or were induced to develop NEC (“NEC”). (A) Gross micrograph of intestine of a control mouse. (B) Gross micrograph of intestine of a control mouse treated with 1 mg/kg CpG-DNA daily for four days. (C) Gross micrograph of intestine of a NEC mouse. (D) Gross micrograph of intestine of a NEC mouse treated with 1 mg/kg CpG-DNA daily for four days. (E) Micrograph of histological section of intestine of a control mouse. (F) Micrograph of histological section of intestine of a control mouse treated with CpG. (G) Micrograph of histological section of intestine of a NEC mouse. (H) Micrograph of histological section of intestine of a NEC mouse treated with CpG. (I) Summary bar graph of the above results.
# FIG. 16 presents a Western blot showing expression of TLR4 and TLR9 in control mice and mice modeling necrotizing enterocolitis (“NEC”). A substantial increase in the level of TLR4, and a decrease in TLR9, was observed. […]
# [3] = NEC mice, 1 mg/kg CpG-DNA daily for four days
substance,measurement,setting,value
5′-TCCATGACGTTCCTGACGTT-3′ [CpG-DNA],relative level of phosphorylated p38 (increase caused by LPS),[1]; 50 μg/ml LPS + 10 μM CpG vs LPS alone,significantly less
same,relative level of phosphorylated ERK (increase caused by LPS),[1]; LPS + CpG vs LPS alone,significantly less
same,NEC pathology (gross and histological),[2]; [3],substantial inhibition of the NEC pathology
same,apoptosis in terminal ileum (caspase 3),[2]; [3],substantially reduced apoptosis
same,severity of experimental NEC,"[2]; wild-type TLR4 mice, 500 μg/kg CpG intraperitoneally",limit the severity of experimental NEC
